Where two headings read alike, the source gives them in different places.
Legend:
[1] = system: epimastigotes of T. cruzi (Tulahuen 2 strain); parameters: method as in PMID 25512408; details: reference trypanosomicidal drugs; read-out: IC50 against epimastigotes of T. cruzi (reference drugs); cited from earlier work
[2] = target: T1, Trypanosoma cruzi triosephosphate isomerase (TcTIM) (Trypanosoma cruzi, UniProt P52270); assay: Inhibition of enzymatic activity of TcTIM; assay type: biochemical; details: for inhibition at 25 µM: percentage of enzymatic inhibition at 25 μM, read-out: TcTIM % Inhib25; for inhibition at 200 µM: percentage of enzymatic inhibition at 200 μM, read-out: TcTIM % Inhib200
T1 construct: made in house; host or cells: Escherichia coli
T1 sequence (P52270 whole entry): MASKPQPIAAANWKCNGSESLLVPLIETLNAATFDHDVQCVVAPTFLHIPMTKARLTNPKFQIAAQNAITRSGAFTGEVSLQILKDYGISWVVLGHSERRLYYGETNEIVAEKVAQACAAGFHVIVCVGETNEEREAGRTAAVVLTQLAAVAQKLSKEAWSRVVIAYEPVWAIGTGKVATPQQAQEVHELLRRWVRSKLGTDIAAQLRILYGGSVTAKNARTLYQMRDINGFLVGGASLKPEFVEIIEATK
Protocol: In order to investigate if the 3H-[1,2]dithioles inhibit TcTIM, we initially tested the inhibitory capacity of the compounds at a concentration of 200 μM and then at 25 μM.
Expression and purification of protein: TcTIM was expressed in Escherichia coli and purified as described in the literature. After purification, the enzyme, dissolved in 100 mM triethanolamine, 10 mM EDTA and 1 mM dithiothreitol (pH 8), was precipitated with ammonium sulfate (75% saturation) and stored at 4 °C. Before use, extensive dialysis against 100 mM triethanolamine/10 mM EDTA (pH 7.4) was performed. Protein concentration was determined by absorbance at 280 nm (ε = 36,440 M^−1·cm^−1).
Enzymatic activity assays. Enzymatic activity was determined following the conversion of glyceraldehyde 3-phosphate into dihydroxyacetone phosphate. The decrease in absorbance at 340 nm was followed in a multicell Cary spectrophotometer at 25 °C. The reaction mixture (1 mL, pH 7.4) contained 100 mM triethanolamine, 10 mM EDTA, 0.2 mM NADH, 1 mM glyceraldehyde 3-phosphate, and 0.9 units of α-glycerol phosphate dehydrogenase. The reaction was initiated by addition of 5 ng/mL of the TcTIM.
For inactivation studies, TcTIM was incubated at a concentration of 5 mg/mL in a buffer containing 100 mM triethanolamine, 10 mM EDTA, pH 7.4 and 10% of DMSO at 36 °C. The mixture also contained the compounds at the indicated concentrations. Compounds were dissolved in DMSO. After 2 h, […] was withdrawn and added to 1 mL of reaction mixture for the activity assay. None of the molecules tested here affected the activity of α-glycerol phosphate dehydrogenase, the enzyme used for trapping the product.
The IC50 value was taken as the concentration of drug needed to reduce the enzymatic activity to 50%. The experiments were performed in triplicate.

[3] = system: epimastigotes of T. cruzi (Tulahuen 2 strain); assay: Anti-T. cruzi test in vitro (epimastigote growth inhibition); assay type: cell-based, Trypanosoma cruzi; details: for IC50: Trypanosoma cruzi, epimastigotes, Tulahuen 2 strain, triplicate, read-out: IC50 against T. cruzi
Protocol: (§1) To evaluate the anti-trypanosomal activity of the synthesized 3H-[1,2]dithioles we used T. cruzi, Tulahuen 2 strain (discrete typing unit, DTU, TcVI [18]) in the epimastigote form. […] To establish the selectivity of the compounds against the parasite, unspecific cytotoxicity against mammalian cells (J774.1 murine macrophages) was studied for the most relevant derivatives. The selectivity indexes (SI) were also determined (Table 1).
We used epimastigotes of the Tulahuen 2 strain (DTU, Tc VI) growing in an axenic milieu (BHI-Tryptose). Cells from a 5–7-day-old culture were inoculated in fresh culture milieu to give an initial concentration of 1 × 10^6 cells/mL. The absorbance at 600 nm of the cells in culture was measured every day. At day 5, the milieu was inoculated with different quantities of the compounds from a stock solution in DMSO (DMSO concentration in the culture milieu never exceeded 0.4%). The control was made in the presence of 0.4% DMSO and in the absence of compounds. […] At day 5, the absorbance of the culture was measured and related to the control. The IC50 value was taken as the concentration of drug needed to reduce the absorbance ratio to 50%.

[4] = target: T2, cruzipain (Trypanosoma cruzi, UniProt P25779); assay: Inhibition of T. cruzi cruzipain (Z-Phe-Arg-AMC fluorogenic substrate); assay type: biochemical; details: percentage of enzymatic inhibition at 100 μM; read-out: Cruzipain % Inhib100
T2 construct: endogenous in cells; host or cells: T. cruzi epimastigotes, Tulahuen 2 strain
T2 sequence (P25779 123-467): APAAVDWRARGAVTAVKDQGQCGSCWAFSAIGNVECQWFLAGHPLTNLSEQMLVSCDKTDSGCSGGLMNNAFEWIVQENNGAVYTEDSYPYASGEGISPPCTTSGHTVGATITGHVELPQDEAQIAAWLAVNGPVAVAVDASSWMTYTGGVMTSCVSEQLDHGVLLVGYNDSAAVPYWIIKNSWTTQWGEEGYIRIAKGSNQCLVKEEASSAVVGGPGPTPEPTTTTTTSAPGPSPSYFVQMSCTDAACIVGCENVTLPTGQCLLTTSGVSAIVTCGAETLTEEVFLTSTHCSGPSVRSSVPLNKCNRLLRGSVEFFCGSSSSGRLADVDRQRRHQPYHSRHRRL
Protocol: Initially, we tested the dithioles as inhibitors of the protease cruzipain from T. cruzi at a concentration of 100 μM.
Cruzipain was purified to homogeneity from epimastigotes of the Tulahuen 2 strain by ConA-Sepharose affinity chromatography, as previously described. Cruzipain (2.5 μM ε = 58,285 M^−1·cm^−1) was incubated in 50 mM acetate buffer pH 5.5 with 50 mM DTT and 100 μM inhibitor was added, shaking the solution for 15 min at 27 °C. The derivatives were added diluted in DMSO, and the controls contained the same solvent concentration. The concentration of DMSO never exceeded 1% in the reaction medium. E-64 was used as a positive control of inhibition. Then, the fluorogenic substrate Z-Phe-Arg-AMC (100 μM) was added and the fluorescence was measured during 10 min at intervals of 3 s (excitation at 350 nm and emission at 460 nm) using a Varioskan Flash Spectrophotometer. From the slope of the negative control, we calculated the total (100%) enzyme activity, while the slopes obtained in the presence of the compounds yielded the percentage of remaining enzyme activity. The percentage of enzyme inhibition was determined as […]. The experiments were done in duplicate.

[5] = system: T. cruzi cells (Y strain, DTU Tc II); assay: 1H-NMR study of the excreted metabolites; assay type: cell-based, Trypanosoma cruzi
Protocol: To gain insight into the changes promoted by the active 3-propylidene[1,2]dithioles 2 and 14 in some biochemical pathways, the metabolites excreted by the parasite using ^1H-NMR spectroscopy were analyzed. Changes in the excreted metabolites by T. cruzi Y strain (DTU Tc II, [24]), when the parasite cells were exposed to a bioactive compound, could be indicative of the modification of the biochemical pathway(s) by the agents. Spectra of the cell-free milieu of treated parasites were compared with those of the untreated T. cruzi-free milieu as the control. We focused mainly on the changes of excreted salts of the carboxylic acids, lactate (Lac), acetate (Ace), pyruvate (Pyr), and succinate (Succ) and the amino acids, alanine (Ala) and glycine (Gly), among the most relevant modified metabolites.
For the ^1H-NMR spectroscopic studies, T. cruzi cells (Y strain, DTU Tc II) treated for 2 days, with each studied compound at concentrations corresponding to 2 × IC50 values (5 mL) were centrifuged at 1500× g for 10 min at 4 °C. The pellet was discarded, and the parasite-free supernatant was stored at −20 °C until use. Before measuring, DMF (0.1 mL, 10 mM) as the internal standard and D2O (0.1 mL) were added to the supernatant (0.3 mL). ^1H-NMR experiments were recorded at 20 °C on a Bruker Advance DPX-400 spectrometer (Bruker), operating at 400.132 MHz, with a 5 mm broadband inverse geometry probe. The acquisition parameters included: 90° pulse (zgpr, advance-version v 1.7.10.2, 1D sequence with f1 presaturation), 128 scans, and spectral width of 14.983 ppm. The acquisition time was 1.3664 s. Signal intensities were calculated by performing appropriate baseline corrections and then integrating the area under each of the resonances using MestRe-C NMR software. Spectra were analyzed using the Topspin 1.3 software package. The spectra were registered with water suppression in 5 mm NMR (Aldrich, St. Louis, MO, USA) sample tubes. The chemical displacements used to identify the respective metabolites were previously confirmed by adding each analyzed metabolite to the studied supernatant, as well as by the study of a control solution with 4 μg/mL of each metabolite in buffer (phosphate, pH = 7.4). Each run was done at least in triplicate and the Student t test was used to analyze the significance of the changes. […]

[6] = system: J774.1 murine macrophages; assay: Unspecific in vitro cytotoxicity of mammalian cells (MTT); assay type: cell-based; details: Mus musculus, 48 h exposure, read-out: IC50 against Macrophages
Protocol: as §1
J774.1 murine macrophage cells (ATCC, Manassas, VA, USA) were grown in DMEM culture milieu containing 4 mM L-glutamine and supplemented with 10% heat-inactivated fetal calf serum. […] Afterwards, cells were exposed for 48 h to the compounds (25–400 μM) or vehicle for control (0.4% DMSO), and additional controls (cells in medium) were used in each test. Cell viability was then assessed by measuring the mitochondria-dependent reduction of MTT (3-(4,5-dimethylthiazol-2-yl)-2,5-diphenyltetrazolium bromide) to formazan. For this purpose, MTT in sterile PBS (0.2% glucose) pH 7.4 was added to the macrophages to achieve a final concentration of 0.1 mg/mL and the cells were incubated at 37 °C for 3 h. After removing the medium, formazan crystals were dissolved in 180 μL of DMSO and 20 μL of MTT buffer (0.1 M glycine, 0.1 M NaCl, 0.5 mM EDTA, pH 10.5) and the absorbance at 560 nm was measured. The IC50 was defined as the drug concentration at which 50% of the cells were viable, relative to the control (no drug added), and was determined by analysis using OriginLab8.5® sigmoidal regression (% of viable cells vs. logarithm of the compound concentration). Samples were performed in triplicate.

[7] = target: T2, cruzipain; assay: Inhibition of T. cruzi cruzipain (Z-Phe-Arg-AMC fluorogenic substrate); assay type: biochemical; details: isolated enzyme
[8] = system: membrane sterol biosynthesis in epimastigotes of Y strain of T. cruzi; assay: Inhibition of membrane sterol biosynthesis (qualitative TLC); assay type: cell-based, Trypanosoma cruzi; details: compounds at their IC50, 72 h, 28 °C, compared to control
Protocol: To do so, we analyzed the accumulation or depletion of some intermediates or final products of this biochemical pathway. Qualitative analyses were performed by thin layer chromatography (TLC).
The parasites, epimastigotes of Y strain of T. cruzi (DTU Tc II), were grown in 6 mL of BHT milieu in culture bottles. […] A negative control was performed with parasites in the absence of compounds. […] The extraction of membrane sterols was performed on completion of the incubation. For this purpose, the content of the culture bottle was centrifuged at 3000 rpm for 10 min, the supernatant was discarded and the pellet was suspended in sodium phosphate buffer solution (6 mL, 0.05 M, pH 7.4). Then it was centrifuged again at 3000 rpm for 10 min and the supernatant was discarded. The resulting pellet was resuspended in a chloroform/methanol (2:1) mixture (5 mL) and the suspension was kept at 4 °C for 12 h. Then, a saturated NaCl solution (5 mL) was added and the mixture extracted once with chloroform (3 mL) and once with hexane (3 mL) with care to avoid taking any aqueous phase. The extracted volume was applied to a silica gel TLC plate. Chromatography was performed eluting with hexane, two runs to identify squalene, and once with hexane/EtOAc (8:2) for ergosterol. […] Also, controls and commercial samples of ergosterol, lanosterol, cholesterol and squalene were run on the TLC plate. […]

[9] = system: T. cruzi; details: positive control of the sterol study; source not given; read-out: IC50 of terbinafine; cited from earlier work
[10] = IC50 × 2, 2 days, DMF internal standard

Q: With `O=C(Cn1ccnc1[N+](=O)[O-])NCc1ccccc1` [Bnz, benznidazole] as the compound, how does the IC50 [1] read?
A: 7 ± 1 µM

Q: With `O=C(CS/C(C(=O)c1ccc2ccccc2c1)=C1\C=C(c2ccc(O)cc2)SS1)c1ccc2ccccc2c1` [Derivative 14] as the compound, how does the inhibition at 25 µM [2] read?
A: 38 ± 3.5%

Q: And the inhibition at 200 µM [2]?
A: 70%

Q: And the IC50 [3]?
A: 4.9 ± 1.1 µM

Q: What about the inhibition at 100 µM [4] of the same compound?
A: 66.5 ± 0.3%

Q: What about the “Concentration of excreted Ace” value [5, 10] of the same compound?
A: 26.41 ± 1.44

Q: And the “Concentration of excreted Ala” value [5, 10]?
A: 20.65 ± 1.27

Q: And the “Concentration of excreted Gly” value [5, 10]?
A: 2.48 ± 0.14

Q: And the “Concentration of excreted Lac” value [5, 10]?
A: 10.41 ± 0.58

Q: And the “Concentration of excreted Pyr” value [5, 10]?
A: 9.47 ± 0.53

Q: And the “Concentration of excreted Succ” value [5, 10]?
A: 7.34 ± 0.65

Q: What about the “Change of excreted metabolites compared to the control” value ([5]; IC50 × 2, p < 0.05 Student's t-test) of the same compound?
A: did not modify the excreted catabolites

Q: And the IC50 [6]?
A: 63 ± 2 µM

Q: Which inhibition at 25 µM [2] does the source give for `COc1ccc(C2=C/C(=C(\SCC(C)=O)C(C)=O)SS2)cc1` [Derivative 15] here?
A: 62 ± 3%

Q: And the inhibition at 200 µM [2]?
A: 86%

Q: What about the IC50 [3] of the same compound?
A: 5.9 ± 1.2 µM

Q: What about the “SI (selectivity index)” value ([3]; macrophages (J774.1) vs T. cruzi epimastigotes) of the same compound?
A: <4.1

Q: What about the inhibition at 100 µM [4] of the same compound?
A: 85.4 ± 0.2%

Q: And the IC50 [6]?
A: < 24 µM

Q: What about the IC50 [7] of the same compound?
A: 15.1 ± 2.5 µM

Q: Which IC50 [1] does the source give for `CC1CS(=O)(=O)CCN1/N=C/c1ccc([N+](=O)[O-])o1` (centres unmarked) [Nfx, nifurtimox] here?
A: 8 ± 1 µM

Q: For `CN(C/C=C/C#CC(C)(C)C)Cc1cccc2ccccc12` [terbinafine, reference compound], which “Changes in membrane sterols and intermediates (squalene, ergosterol)” value [8] is on record?
A: accumulate squalene and deplete ergosterol

Q: And the IC50 [9]?
A: 44.7 µM

Reference: PMC6332334, “3-H-[1,2]Dithiole as a New Anti-Trypanosoma cruzi Chemotype: Biological and Mechanism of Action Studies” (Molecules, 2015)
